In patent US6593369B2, “Methods, compositions, and kits for enhancing female sexual desire and responsiveness” (Vivus, Inc., priority 1997, dated 2003):
≈ marks a conversion by molar mass, not a printed value.

What was measured:
[1] = test system: clitoris; experiment: Measurement of clitoral skin temperature after topical application to the clitoris; format: in vivo, human
Source text: 2. Measurement of clitoral skin temperature:
A highly sensitive thermocouple capable of determining changes in skin temperature of 0.002 degrees Fahrenheit was connected to a computer-based recording device (F1000 by Focused Technology, Inc.) and used to measure changes in clitoral skin temperature. The patient changed from their clothes into a gown and was placed in a semi-reclining position in a comfortable recliner. Room temperature was controlled at 76 degrees F. (±1) and no air drafts were present. The thermocouple was coated with a small amount of lubricating jelly and placed in a labial skin fold adjacent to the clitoris. A period of equilibration (˜15 minutes) allowed the measured temperature to stabilize. Next, precise doses of various pharmaceuticals were applied as solutions directly to the clitoris by a calibrated micropipette (Justor 1100DG, Sigma; St. Louis, Mo.). Typical volumes used were 20-50 microliters. Clitoral temperatures were continually measured and printed for analysis. Increases in skin temperature directly correlate with changes in cutaneous blood flow. See Birnbaum (U.S. Pat. No. 4,311,707) for an example of using this method to compare the relative vasodilatory potency of topical prostaglandins. Changes in skin temperature are reported as maximum recorded temperature in an interval minus the temperature at the end of the equilibration period. The magnitudes of these recorded temperature changes may be used as a measurement of the change in clitoral blood flow.
(§1) 1. Solutions of prostaglandin E-1 and E-2 were prepared by dissolving weighed amounts of the prostaglandin in triacetin to produce a concentrated stock solution. Serial dilutions of this stock solution were made by a micropipette. Since triacetin can partially hydrolyze on standing to produce traces of acetic acid, the triacetin was treated with a small amount of a concentration potassium bicarbonate solution to remove any acetic acid, then dried with magnesium sulfate and filtered to give a triacetin free of acid or water. Solutions were used the same day that they were made. Concentrations of prostaglandin varied from 2.0-1,000 micrograms per milliliter of triacetin. Following equilibration of clitoral temperature, a dose of triacetin was applied to the clitoris prior to active drug solutions to determine the effect of the carrier on the clitoris.
(§2) 2. R-alphamethylhistamine hydrochloride is not soluble in triacetin but is soluble in saline. Normal saline +2 millimolar potassium phosphate at pH 7.4 was used to prepare solutions of R-alphamethylhistamine hydrochloride with concentrations from 2.5-100 micrograms per milliliter of saline.
(§3) Solutions were applied directly to the clitoris by means of a calibrated micropipette (Justor 1100DG, Sigma; St. Louis, Mo.).

[2] = test system: clitoral artery; experiment: Measurement of clitoral blood flow by ultrasound (Doppler velocitometer); format: in vivo, human; settings: Patient No. 1; for Change in Clitoral Blood Flow: peak systolic flow vs baseline; for Change in Clitoral Blood Flow, percent in brackets: vs baseline
Source text: 1. Measurement of clitoral blood flow by ultrasound:
Clitoral blood flow was estimated by utilizing the Knoll-Midas ultrasonic Doppler velocitometer (Urometrics, Inc.). The ultrasound probe was manually positioned over the middle of the clitoral body as it courses superficially through the perineum between the external vaginal opening and the end of the clitoris (glans clitoris). […] This method is analogous to that used in measuring the cavernosal artery velocity in the penis. The clitoral artery was easily visualized. Measurements were made at baseline and at various time intervals following the application of a drug to the clitoris. Peak systolic blood flow at baseline was compared to peak systolic blood flow following drug administration as a method of comparing relative efficacy in inducing clitoral artery vasodilatation in a manner analogous to studies of such drugs in men.
as §1, §3

[3] = test system: clitoris; experiment: Patient subjective reports of sexual arousal and symptoms after application to the clitoris; format: in vivo, human
Protocol: 3. Patient Subjective Reports:
Patient reports of symptoms and effects of agents on sexual arousal measures (such as warmth and tingling, vaginal lubrication and excitation) were recorded. Blood pressure and pulse were also recorded. Different drugs were given on different days. Some series of drug titrations were recorded on several days.
as §1, §2, §3

[4] = Solubility in water; format: physicochemical
Protocol: 5 mg of PGE-2 is added to sterile cold water (10 ml, 1 mM in sodium citrate), stirred until dissolved and the pH adjusted with either NaOH or HCl, to a pH of about 5.4.

[5] = test system: clitoris; experiment: Subjective examples: composition applied directly to the clitoris of female subjects; format: in vivo, human
Source text: The clitoris is often retracted or hidden under the clitoral hood. Thus, prior to administration of the present composition, the clitoral hood should be retracted with the finger of one hand, and the clitoral hood should be held back as the dose is applied. IV. Subjective Examples

[6] = Chemical stability of prostaglandin preparations; format: physicochemical; settings: composition containing a citrate salt or tocopherol
[7] = Patient No. 1, 0.400 mcg in triacetin on clitoris
[8] = Patient No. 1, 1.000 mcg in triacetin on clitoris
[9] = Patient No. 1, 20.0 mcg in triacetin on clitoris
[10] = Patient No. 1, 50.0 mcg in triacetin on clitoris
[11] = Patient No. 1, 200.0 mcg in triacetin on clitoris
[12] = Patient No. 2, 1.000 mcg in triacetin on clitoris
[13] = Patient No. 2, 10.0 mcg in triacetin on clitoris
[14] = Patient No. 2, 100.0 mcg in triacetin on clitoris
[15] = Patient No. 1, 0.020 mcg in triacetin on clitoris
[16] = Patient No. 1, 0.200 mcg in triacetin on clitoris
[17] = Patient No. 1, 10.0 mcg in triacetin on clitoris
[18] = Example 2, 50 μg with 150 μg phentolamine hydrochloride
[19] = Example 6, 300 μg liposomal mixture after 50 mg naltrexone HCl 2 hours before, person, anorgasmia secondary to paroxetine
[20] = Patient No. 1, 1.0 mcg in saline on clitoris
[21] = Patient No. 1, 10.0 mcg in saline on clitoris
[22] = Patient No. 1, 100.0 mcg in saline on clitoris

CCCCC[C@H](O)/C=C/[C@H]1[C@H](O)CC(=O)[C@@H]1CCCCCCC(=O)O [PGE-1, 3-hydroxy-2-(3-hydroxy-1-octenyl)-5-oxocyclopentaneheptanoic acid]
Temperature Change [1, 7]: −0.6 ° F.
Temperature Change [1, 8]: 0.3 ° F.
Temperature Change [1, 9]: 0.3 ° F.
Temperature Change [1, 10]: 0.1 ° F.
Temperature Change ([1]; Patient No. 1, 100.0 mcg in triacetin on clitoris): 2.7 ° F.
Temperature Change [1, 11]: 0.4 ° F.
Clitoral temperature effect (conclusion) ([1]; Patient No. 2): did not have a temperature increase
Temperature Change [1, 12]: −0.35 ° F.
Temperature Change [1, 13]: −0.10 ° F.
Temperature Change [1, 14]: −0.10 ° F.
Change in Clitoral Blood Flow ([2]; 20.0 mcg in triacetin): 4 cm/s
Change in Clitoral Blood Flow, percent in brackets ([2]; 20.0 mcg in triacetin): +46%
Change in Clitoral Blood Flow ([2]; 50.0 mcg in triacetin): 3.5 cm/s
Change in Clitoral Blood Flow, percent in brackets ([2]; 50.0 mcg in triacetin): +32%
Change in Clitoral Blood Flow ([2]; 100.0 mcg in triacetin): 6.5 cm/s
Change in Clitoral Blood Flow, percent in brackets ([2]; 100.0 mcg in triacetin): +33%
Change in Clitoral Blood Flow ([2]; 200.0 mcg in triacetin): 11 cm/s
Change in Clitoral Blood Flow, percent in brackets ([2]; 200.0 mcg in triacetin): +80%
Doses giving pleasurable feelings ([3]; Patient No. 1): ≥ 20 µg
Doses with adverse effects ([3]; Patient No. 1): adverse effects at all doses
Subjective Response [3, 7]: Felt cold.
Subjective Response [3, 8]: Clitoral burning; 6/10;
Subjective Response [3, 9]: Clitoral burning; 4/10.
Subjective Response [3, 10]: Exciting. Jaw pain.
Subjective Response [3, 11]: Diffuse pain, flushing,
Overall effects ([3]; Patient No. 2): neither positive nor negative effects
Subjective Response [3, 12]: Felt drop go on. No
Subjective Response [3, 13]: Felt drop go on. No
Subjective Response [3, 14]: Felt nothing.
solubility [4]: 0.08 mg/mL (≈ 226 µM)

CCCCC[C@H](O)/C=C/[C@H]1[C@H](O)CC(=O)[C@@H]1C/C=C\CCCC(=O)O [PGE-2, 7-[3-hydroxy-2-(3-hydroxy-1-octenyl)-5-oxocyclopentyl]-5-heptenoic acid]
Temperature Change [1, 15]: 2.1 ° F.
Potency relative to PGE-1 (clitoral temperature increase) ([1]; Patient No. 1, 0.200 mcg PGE-2 about equal to 100 mcg PGE-1): about 500 times
Temperature Change [1, 16]: 2.4 ° F.
Temperature Change [1, 7]: 4.5 ° F.
Temperature Change [1, 8]: 2.3 ° F.
Temperature Change [1, 17]: 4.8 ° F.
Temperature Change [1, 10]: 2.0 ° F.
Temperature Change ([1]; Patient No. 2, 0.050 mcg in triacetin on clitoris): 1.8 ° F.
Temperature Change [1, 12]: 2.4 ° F.
Temperature Change [1, 13]: 2.0 ° F.
Clitoral temperature effect (conclusion) ([1]; both patients): increases in clitoral temperatures
Change in Clitoral Blood Flow ([2]; 0.020 mcg in triacetin): 0 cm/s
Change in Clitoral Blood Flow ([2]; 0.200 mcg in triacetin): 11 cm/s
Change in Clitoral Blood Flow, percent in brackets ([2]; 0.200 mcg in triacetin): +50%
Change in Clitoral Blood Flow ([2]; 0.400 mcg in triacetin): 12 cm/s
Change in Clitoral Blood Flow, percent in brackets ([2]; 0.400 mcg in triacetin): +92%
Change in Clitoral Blood Flow ([2]; 1.000 mcg in triacetin): 10 cm/s
Change in Clitoral Blood Flow, percent in brackets ([2]; 1.000 mcg in triacetin): +77%
Change in Clitoral Blood Flow ([2]; 10.0 mcg in triacetin): 10 cm/s
Change in Clitoral Blood Flow, percent in brackets ([2]; 10.0 mcg in triacetin): +100%
Change in Clitoral Blood Flow ([2]; 50.0 mcg in triacetin): 2 cm/s
Change in Clitoral Blood Flow, percent in brackets ([2]; 50.0 mcg in triacetin): +20%
Dose resulting in an increase in clitoral blood flow ([2]; triacetin solution with palmitic acid (PGDH inhibitor) and PGE2 in 10:1 weight ratio): 0.4 nanograms
Best dose ([3]; Patient No. 1): 0.400 µg
Doses with adverse effects ([3]; Patient No. 1): 50 µg
Subjective Response [3, 15]: Rare tingle.
Subjective Response [3, 16]: Very excited.
Subjective Response [3, 7]: Very excited, 9/10.
Subjective Response [3, 8]: Excited, 7/10.
Subjective Response [3, 17]: Very excited.
Subjective Response [3, 10]: Excited. 2/10 abdominal
Dose with subjective reports of a sexual response ([3]; Patient No. 1, triacetin solution with palmitic acid (PGDH inhibitor) and PGE2 in 10:1 weight ratio): 2 nanograms
Amount giving a sexual response ([3]; Patient No. 2): ≥ 0.050 µg
Subjective Response [3, 12]: Excited.
Sexual response after application ([5]; Example 1A, 20 μg with 150 μg phentolamine hydrochloride and 3 mg papaverine hydrochloride in liposomal solution, person, no sexual dysfunction): the clitoris became engorged and vaginal lubrication was noted
Sexual response after application ([5]; Example 1B, 125 μg with 125 μg phentolamine, aqueous solution, 2 drops, same person): essentially the same response as in part A
Sexual response after application ([5]; Example 1C, 125 μg alone in aqueous saline, 3 drops, same person): the same response described in part A but with reduced intensity
Duration of clitoral enlargement and sexual excitement [5, 18]: gone within one hour after application of the composition
Time at which stimulation peaked after application [5, 18]: around 15 minutes
Sexual response after application ([5]; Example 2, 50 μg with 150 μg phentolamine hydrochloride, aqueous solution, person, no sexual dysfunction): warm tingling sexual feelings in their clitoris within one minute
Response to repeat dosing ([5]; Example 2, repeat dose one and a half hours after the first dose): gave the same response as the first dose
Intensity of response rated by subject ([5]; Example 2, scale of one (1) to ten (10), ten highest, 50 μg with 150 μg phentolamine hydrochloride): 8
Sexual response after application ([5]; Example 5, 150 μg in liposomal solution, three drops, person with decreased sexual responsiveness): greatly increased their sexual desire and responsiveness
Sexual response after application [5, 19]: had the best sexual experience of their life
Time to tingling sexual feelings spreading over body [5, 19]: ≤ 1 min
Stability in composition [6]: especially stabile

C[C@@H](N)Cc1c[nH]cn1.Cl [R-alphamethylhistamine, R-alphamethylhistamine hydrochloride]
Overall effect on temperature and sexual excitement ([1]; Patient No. 1): decreased temperature and decreased sexual excitement
Temperature Change [1, 20]: −0.1 ° F.
Temperature Change [1, 21]: −0.5 ° F.
Temperature Change [1, 22]: 0.1 ° F.
Subjective Response [3, 20]: None.
Subjective Response [3, 21]: Numb feeling in clitoris.
Subjective Response [3, 22]: Clitoral burning; 2/10;
